Results taken from patent publication US20160199393A1, “METHODS OF TREATING BRAIN ISCHEMIA OR HYPOXIA” (China Medical University, priority 2015, published 2016).

What was measured:
xCT = xCT mRNA and protein levels in homogenised ischemic brain tissue of rats with CIR; format: in vivo, rat; details: pretreatment 150 mg/kg, 12 h after reperfusion
Procedure: Eight to ten-week-old male adult male Sprague-Dawley rats, C57BL/6J mice and xCT^−/− mice were anesthetized with 1.5% isoflurane in oxygen, allowed breathing spontaneously, and body temperature was maintained at 37° C. with a heat lamp during surgery for right middle cerebral artery ligation and bilateral common carotid artery clamping as previously described (Chen S T, Hsu C Y, Hogan E L, Maricq H, Balentine J D. A model of focal ischemic stroke in the rat: reproducible extensive cortical infarction. Stroke; a journal of cerebral circulation. 1986; 17(4):738-43, which is incorporated here by reference). Animals were subjected to transient cerebral ischemia for 90 min in rats and 2 h in mice.
Q-PCR analysis was performed as described previously in Hsieh (Hsieh C H, Kuo J W, Lee Y J, Chang C W, Gelovani Liu R S. Construction of mutant TKGFP for real-time imaging of temporal dynamics of HIF-1 signal transduction activity mediated by hypoxia and reoxygenation in tumors in living mice. J Nucl Med. 2009; 50(12):2049-57, which is incorporated here by reference). […] The cDNA was then used for real time PCR quantification of mRNAs using the gene specific forward and reverse primers. […]
To test this hypothesis, the mRNA and protein levels of xCT in ischemic brains with or without 2-methoxyestradiol (2ME2), an inhibitor of HIF-1, at 12 h after CIR were first determined. […]

mouse xCT promoter = assay: Mouse xCT promoter luciferase reporter assay in neurons and astrocytes; format: cell-based; details: 24 h incubation, DFO 100 μM, CoCl2 50 μM
From the text: The multiple cloning sites (MCS) of pTA-Luc vector (Clontech) was inserted with the cDNA fragment bearing −2000 to +1 bp mouse or human xCT promoter to drive the expression of firefly luciferase gene as pTA-mxCTp-Luc or pTA-hxCTp-Luc. The mutant of hypoxia response element on mouse or human xCT promoter was generated in the pTA-mxCTp-Luc or pTA-hxCTp-Luc as template by Quick Change Site-directed Mutagenesis Kit (Stratagene).
Cells were cotransfected with xCT promoter-driven reporter constructs with or without HRE mutation and Renilla reporter plasmids. At 24 h after transfection, the luciferase activity was examined by a dual luciferase reporter assay system (Promega) according to the manufacturers instructions, and firefly luciferase activity was normalized to the control renilla activity included in the kit. Luciferase activities are expressed as fold-increase over the luciferase activities in un-stimulated conditions.
To test whether the xCT promoter would respond to HIF activation, the mouse xCT 2000-bp promoter was isolated and fused to firefly luciferase coding sequences for use in transient transfection assays with neurons and astrocytes. Normoxic neurons and astrocytes were treated with OGDR or incubated with desferrioxamine (DFO; 100 μM) or cobalt chloride (CoCl2; 50 μM) for 24 h. The DFO and CoCl2 mimics hypoxia by inducing transcription from HIF-1-dependent genes.

NMDAR [1] = details: for hyperfunction of NMDAR (binding radioactivity of 18F-FSAG): WT cortical cells, OGDR, 24 h after reperfusion, 10 μM (SAS 500 μM)
NMDAR [2] = target: T1, NMDAR (Mus musculus, UniProt P35438); format: in vivo; details: WT and xCT−/− mice with CIR, 12 h after reperfusion, compared to vehicle
T1 construct: from tissue; host or cells: cerebral hemispheres of WT (C57BL/6J) and xCT-/- mice after CIR, in vivo/ex vivo
Procedure: Animals received 29.6 MBq/kg of ^18F-FSAG in 100 μl of PBS via lateral tail vein injection, and then were euthanized by CO2/O2 asphyxiation at 30 min after injection. After sacrifice, selected tissues of interest were then removed and weighed, and the radioactivity was measured using a γ-counter. The percentage injected dose per gram (% ID/g) was then calculated.
To determine in vivo activation of NMDAR, mice were injected with ^18F-FSAG at 12 h after reperfusion for ex vivo biodistribution studies and positron emission tomography (PET) imaging studies.

SLC7A11 (xCT) mRNA = assay: SLC7A11 mRNA level (Q-PCR) in primary cortical cells exposed to OGDR; format: cell-based, mouse; details: pretreatment with YC-1 5 μM
system xc− [3] = target: T2, system xc− (Mus musculus, UniProt Q9WTR6); assay: Extracellular glutamate content in WT cortical cells exposed to OGDR; format: cell-based; details: 24 h after reperfusion, 10 μM (SAS 500 μM)
T2 construct: endogenous in cells; host or cells: primary cortical cells from E17 wild-type C57BL/6J mouse embryos, exposed to OGDR
T2 sequence (Q9WTR6 1-502): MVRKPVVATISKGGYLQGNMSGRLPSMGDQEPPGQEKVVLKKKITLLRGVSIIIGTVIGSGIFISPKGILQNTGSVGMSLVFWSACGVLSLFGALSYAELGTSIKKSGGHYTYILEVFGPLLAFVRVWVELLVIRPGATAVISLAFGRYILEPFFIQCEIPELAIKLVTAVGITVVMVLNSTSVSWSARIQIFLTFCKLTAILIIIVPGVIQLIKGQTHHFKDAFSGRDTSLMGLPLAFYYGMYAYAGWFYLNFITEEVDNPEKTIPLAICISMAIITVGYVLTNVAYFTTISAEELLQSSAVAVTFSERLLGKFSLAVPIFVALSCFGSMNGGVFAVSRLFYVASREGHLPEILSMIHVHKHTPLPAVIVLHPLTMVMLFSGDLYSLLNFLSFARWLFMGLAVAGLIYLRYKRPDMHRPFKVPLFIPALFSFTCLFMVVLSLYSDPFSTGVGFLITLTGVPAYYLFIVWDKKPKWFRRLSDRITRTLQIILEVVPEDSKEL
T2 sequence (P10852 1-526 partner): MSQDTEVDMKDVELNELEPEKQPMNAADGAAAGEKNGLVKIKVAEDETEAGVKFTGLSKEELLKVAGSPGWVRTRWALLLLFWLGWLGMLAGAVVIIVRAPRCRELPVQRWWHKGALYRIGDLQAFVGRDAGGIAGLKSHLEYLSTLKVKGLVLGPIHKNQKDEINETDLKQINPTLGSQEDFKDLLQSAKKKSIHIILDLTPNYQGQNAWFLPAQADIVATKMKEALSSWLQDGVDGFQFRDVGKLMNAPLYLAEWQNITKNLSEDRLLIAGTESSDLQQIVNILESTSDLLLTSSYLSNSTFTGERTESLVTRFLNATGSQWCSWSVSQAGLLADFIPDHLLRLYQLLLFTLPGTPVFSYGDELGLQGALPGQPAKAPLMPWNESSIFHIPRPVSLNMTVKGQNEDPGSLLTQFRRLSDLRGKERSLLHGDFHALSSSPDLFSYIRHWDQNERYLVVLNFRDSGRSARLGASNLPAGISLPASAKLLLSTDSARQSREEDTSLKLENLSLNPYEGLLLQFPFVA
Procedure: (§1) Primary cortical cells were prepared from cerebral cortices of wild-type C57BL/6J or homozygote xCT^−/− mouse embryos in embryonic day 17 as previously described with modification (Goldberg M P, Choi D W. Combined oxygen and glucose deprivation in cortical cell culture: calcium-dependent and calcium-independent mechanisms of neuronal injury. The Journal of neuroscience: the official journal of the Society for Neuroscience, 1993; 13(8):3510-24, which is incorporated here by reference).

neurons = assay: Annexin V flow cytometric apoptosis assay after OGDR, neurons; format: cell-based, mouse; details: WT cortical cells, 24 h after reperfusion, 10 μM (SAS 500 μM)
Procedure: (§2) Annexin V staining was performed to determine cell apoptosis using the Annexin V-FITC Apoptosis Detection Kit (Sigma-Aldrich) for 10 min at room temperature according to the manufacturers instructions, and then flow cytometric analysis was performed.
(§3) The three-color staining flow cytometric assay using allophycocyanin-microtubule-associated protein 2 (MAP2) for neuron staining, phycoerythrin (PE)-GFAP for astrocyte staining and FITC-annexin V for apoptotic cell staining was performed to count the numbers of neurons, astrocytes, and apoptotic cells. FIGS. 21A and […] show the results of apoptosis in wild type (WT) and xCT^−/− cortical cells treated with OGDR at 24 h after reperfusion. *P<0.01 compared to WT without OGDR, Student's t-test. ^#P<0.01 compared to WT with OGDR, Student's t-test. From FIGS. 21A and 21B it was observed that that smaller numbers of apoptotic cells were present in xCT^−/− neurons and astrocytes after OGDR treatment.

WT cortical cells = assay: Lactate dehydrogenase (LDH) level in WT cortical cells after OGD/OGDR; format: cell-based, mouse; details: OGDR, 24 h after reperfusion, 10 μM (SAS 500 μM)
Procedure: as §1
The LDH assay was carried out at 24 hours after reperfusion. *P<0.01 compared to drugs-untreated cells (Un), one-way ANOVA. Error bars denote the standard deviation among triplicate experiments.

astrocytes = assay: Annexin V flow cytometric apoptosis assay after OGDR, astrocytes; format: cell-based, mouse; details: WT cortical cells, 24 h after reperfusion, 10 μM (SAS 500 μM)
Procedure: as §2, §3

system xc− [4] = target: T3, system xc− (Homo sapiens, UniProt Q9UPY5); details: Dixon et al., eLife 2014; cited from earlier work
T3 sequence (Q9UPY5 1-501): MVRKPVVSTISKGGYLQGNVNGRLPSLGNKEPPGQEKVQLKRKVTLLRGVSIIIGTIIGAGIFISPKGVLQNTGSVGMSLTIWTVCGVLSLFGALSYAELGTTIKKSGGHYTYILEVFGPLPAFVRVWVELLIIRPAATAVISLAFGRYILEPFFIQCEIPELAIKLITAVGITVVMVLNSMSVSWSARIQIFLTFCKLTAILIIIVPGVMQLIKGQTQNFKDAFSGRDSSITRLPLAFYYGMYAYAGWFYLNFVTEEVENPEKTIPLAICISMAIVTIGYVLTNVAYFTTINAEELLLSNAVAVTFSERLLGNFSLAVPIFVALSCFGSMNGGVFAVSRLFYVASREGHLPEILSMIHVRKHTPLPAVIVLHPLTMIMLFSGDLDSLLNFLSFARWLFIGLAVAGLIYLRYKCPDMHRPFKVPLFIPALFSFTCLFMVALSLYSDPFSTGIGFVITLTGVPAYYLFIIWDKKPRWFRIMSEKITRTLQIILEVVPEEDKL
T3 sequence (P08195 1-529 partner): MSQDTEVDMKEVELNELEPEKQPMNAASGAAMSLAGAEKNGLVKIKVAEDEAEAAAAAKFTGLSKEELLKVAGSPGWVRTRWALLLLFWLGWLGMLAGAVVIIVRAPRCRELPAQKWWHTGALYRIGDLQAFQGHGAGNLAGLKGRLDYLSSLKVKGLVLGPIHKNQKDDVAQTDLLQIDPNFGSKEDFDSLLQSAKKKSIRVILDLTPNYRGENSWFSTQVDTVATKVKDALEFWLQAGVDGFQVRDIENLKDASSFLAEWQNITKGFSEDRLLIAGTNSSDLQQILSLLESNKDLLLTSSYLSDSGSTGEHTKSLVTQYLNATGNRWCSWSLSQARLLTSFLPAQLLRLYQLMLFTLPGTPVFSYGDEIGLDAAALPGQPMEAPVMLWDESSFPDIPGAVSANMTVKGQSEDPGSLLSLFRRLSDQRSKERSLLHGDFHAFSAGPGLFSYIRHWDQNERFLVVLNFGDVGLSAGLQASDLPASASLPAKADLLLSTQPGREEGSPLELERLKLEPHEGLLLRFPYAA

COc1cc2c(cc1O)CC[C@@H]1[C@@H]2CC[C@]2(C)[C@@H](O)CC[C@@H]12 [2ME2, 2-methoxyestradiol]
xCT mRNA expression level (xCT): significantly inhibited | xCT protein expression level (xCT): significantly inhibited

[Cl][Co][Cl] [CoCl2, cobalt chloride]
transcriptional activation of xCT (reporter activity of mouse xCT promoter) (mouse xCT promoter): increased

CC(=O)N(O)CCCCCNC(=O)CCC(=O)N(O)CCCCCNC(=O)CCC(=O)N(O)CCCCCN [DFO, desferrioxamine]
transcriptional activation of xCT (reporter activity of mouse xCT promoter) (mouse xCT promoter): increased

C[C@]12N[C@H](Cc3ccccc31)c1ccccc12 [MK801]
binding of 18F-FSAG (NMDAR [1]; cortical cells, pretreatment 10 μM): blocked | 18F-FSAG accumulation in ipsilateral and contralateral hemispheres (NMDAR [2]): significant reduction

OCc1ccc(-c2nn(Cc3ccccc3)c3ccccc23)o1 [YC-1]
OGDR-increased SLC7A11 mRNA expression (SLC7A11 (xCT) mRNA): inhibited

CCOc1ccccc1-n1c(C(C)N2CCN(C(=O)COc3ccc(Cl)cc3)CC2)nc2ccccc2c1=O (stereo not drawn) [erastin]
OGDR-induced glutamate release (extracellular glutamate content) (system xc− [3]): inhibited | hyperfunction of NMDAR (binding radioactivity of 18F-FSAG) (NMDAR [1]): inhibited | apoptosis in neurons (neurons): inhibited | LDH levels (WT cortical cells): inhibited | apoptosis in astrocytes (astrocytes): inhibited

Cc1ccc(NC(=O)c2ccc(CN3CCN(C)CC3)cc2)cc1Nc1nccc(-c2cccnc2)n1 [imatinib]
system xc− inhibition activity (system xc− [4]): lacking system xc^− inhibition activity

CNC(=O)c1cc(Oc2ccc(NC(=O)Nc3ccc(Cl)c(C(F)(F)F)c3)c(F)c2)ccn1 [regorafenib]
OGDR-induced glutamate release (extracellular glutamate content) (system xc− [3]): inhibited | hyperfunction of NMDAR (binding radioactivity of 18F-FSAG) (NMDAR [1]): inhibited | apoptosis in neurons (neurons): inhibited | LDH levels (WT cortical cells): inhibited | apoptosis in astrocytes (astrocytes): inhibited
